Results reported in PMC9732821, “Neurotrophic Activity and Its Modulation by Zinc Ion of a Dimeric Peptide Mimicking the Brain-Derived Neurotrophic Factor N-Terminal Region” (ACS Chemical Neuroscience, 2022).

System: ERK
Experiment: ERK phosphorylation, in cell ELISA in differentiated SH-SY5Y cells
Format: cell-based, human
Details: for ERK phosphorylation increase vs unstimulated control: 10 min, 150 ng/mL BDNF or 10 μM peptide, three independent replicas in duplicate; for EC50 / maximal effect (Emax) of ERK phosphorylation: dose–response, differentiated SH-SY5Y, two independent replicas in duplicate; for maximal effect (Emax) of ERK phosphorylation: BDNF and d-bdnf not significantly different
Experimental: Figure 1 Activation of the TrkB receptor by BDNF and its mimetic peptide ligands. (A) Schematic picture of the human TrkB receptor fused to the EGFP construct (hTrkB-EGFP); recombinant human mature BDNF (hBDNF); monomeric peptide, m-bdnf; dimeric peptide, d-bdnf; scrambled s-bdnf. (B) WB showing Tyr phosphorylation (p-Tyr, top) and total TrkB levels (bottom) in SH-SY5Y cells transfected with hTrkB-EGFP in the absence (ctrl) or presence of 10 min stimulation with 150 ng/mL BDNF or 10 μM m-bdnf, d-bdnf, or s-bdnf. Samples were immunoprecipitated (IP) with the anti-GFP antibody before WB. The relative density of the bands is reported on the right of the blots, as mean ± SEM of five (BDNF) and four (peptides) independent replicas; each p-Tyr band density was divided for the respective TrkB band and normalized to the ctrl signal (***p < 0.001, *p < 0.05 vs ctrl, according to one-way ANOVA with Bonferroni’s multiple comparison test). (C) Scatter dot plot of ERK (left) and AKT (right) phosphorylation levels detected in differentiated SH-SY5Y cells, after stimulation with the same treatments as in (B). Phosphorylation levels were normalized to the cell number and reported as percentage versus the ctrl. Data ± SD were pooled from three independent replicas performed in duplicate. (D) ERK phosphorylation dose–response curve of BDNF and d-bdnf. Data ± SEM were pooled from two independent replicas performed in duplicate. (E) Intensity image of a TrkB-EGFP transfected cell (scale bar 10 μm). White square defines a region of the image that contains both the cell membrane and the background signal. […] The dashed black lines identify the mean values of B for the monomer and the dimer, as indicated. (G) Bar graph of mean ± SD ‘B-1’ values retrieved from N&B analysis for all the different conditions measured. The horizontal dashed lines indicate the ‘B-1’ average values assigned to the monomer (based on data from f-EGFP) and the dimer. Data (round circles) were pooled from two independent experiments. A one-way ANOVA with Dunnett’s multiple comparisons test was applied to compare data to the f-EGFP reference (*p < 0.05, ***p < 0.001, ****p < 0.0001). […]
ERK and AKT phosphorylation were assessed in a 96-well plate format, performing an in cell ELISA assay as previously described 4. SH-SY5Y or HEK 293T cells were seeded at a density of 5.000 and 80.000 cell/well in 96 multiwell respectively, and the former were differentiated as describe above.
Cells were treated as described for TrkB phosphorylation or reported in the graphs, then washed with 0.1% Triton X-100 in PBS and fixed with 4% paraformaldehyde. Cells were then permeabilized (1% BSA; 0.1% Triton X-100 in PBS) for 1 hour, at the end, cells were incubated overnight at 4°C with anti-phospho ERK (1:500, sc-7383, Santa Cruz) or phosphor AKT (1:500, sc-16646-R-, Santa Cruz) antibodies. Next day, after the incubation with HRP-conjugated secondary antibody (anti-mouse # 31430, Invitrogen; anti-rabbit A0545, Sigma-Aldrich) the TMB substrate was added and the absorbance was read at 450 nm. Cells were incubated with only the secondary antibody to obtain the aspecific binding (Blanks). The absorbances were normalized to the relative number of cells in each well that was determined using Crystal Violet staining. […]
°C with chicken anti-BDNF (1:100, G164A Promega) antibody diluted in 2.5% BSA/PBS. The next morning samples were incubated with an Alexa568-conjugated anti-chicken secondary antibody (1:500, Thermofisher) in 2.5% BSA/PBS for 2h at room temperature. Coverslips were mounted with Fluoroshield-DAPI (Sigma-Aldrich) and imaged with a laser scanning confocal microscope (Nikon A1, Eclipse Ti), using a 60× oil objective (NA 1 .40) and pinhole set to 1 AU. Images were acquired […]
nm laser (emission window 545-645 nm). BDNF fluorescence intensity was analysed using FIJI ImageJ software. Briefly, the background intensity was subtracted from all red channel fields and an […]

Molecule: HSDPARRGELSV-NH2 [m-bdnf, linear peptide fragment encompassing the first 12 amino acids of the mature NT N-terminal]
- ERK phosphorylation increase vs unstimulated control: only BDNF and d-bdnf were able to induce a significant ERK and AKT phosphorylation increase

Molecule: SRAGPHLRDVSE-NH2 [s-bdnf]
- ERK phosphorylation increase vs unstimulated control: only BDNF and d-bdnf were able to induce a significant ERK and AKT phosphorylation increase

Molecule: HSDPARRGELSVC-C-VSLEGRRAPDSH (disulfide) [d-bdnf]
- ERK phosphorylation increase vs unstimulated control: significant ERK and AKT phosphorylation increase
- EC50: 13.6 ± 3.87 µM
- maximal effect (Emax) of ERK phosphorylation: 227.3 ± 6.3

B1: brain-derived neurotrophic factor (protein, UniProt P23560 1-247, looked up)
chain: MTILFLTMVISYFGCMKAAPMKEANIRGQGGLAYPGVRTHGTLESVNGPKAGSRGLTSLADTFEHVIEELLDEDQKVRPNEENNKDADLYTSRVMLSSQVPLEPPLLFLLEEYKNYLDAANMSMRVRRHSDPARRGELSVCDSISEWVTAADKKTAVDMSGGTVTVLEKVPVSKGQLKQYFYETKCNPMGYTKEGCRGIDKRHWNSQCRTTQSYVRALTMDSKKRIGWRFIRIDTSCVCTLTIKRGR
modifications: full-length
notes: full-length human BDNF produced recombinantly in Escherichia coli
- ERK phosphorylation increase vs unstimulated control: significant ERK and AKT phosphorylation increase
- maximal effect (Emax) of ERK phosphorylation: 237.1 ± 5.0
- EC50 (referred to the monomer form): 0.00069 ± 0.00024 µM
